Here are results for one compound from US20240315963A1, “COMPOSITIONS AND METHODS FOR EXTENDED DELIVERY OF API TO TREAT DISEASES OF THE EYE” (priority 2023, published 2024).

A short description of the series: API elution study from the gel, buffer replaced daily, HPLC. It counts as physicochemical. The conditions noted are these: 50 mg API in 4-Arm PEG-10K-SG/4-arm-PEG-10K-SAS/4-arm PEG-20K-NH2 gel; 37° C., 2 ml 7.4 buffer replaced daily. Here is the method: A mold piece manufactured per example 5 is placed in a 2 ml buffered saline at 37° C. water bath. The entire 2 ml saline is removed daily from the sample and a new 2 ml saline is added. The process is repeated daily till the device is completely dissolved. The saline sample with drug is analyzed by HPLC, GC to establish the elution rate.
Example 22. Powder mixtures of 4-Arm PEG-10K-SG (12.5 mg) and 4-arm-PEG-10K-SAS (12.5±0.5 mg), 4-arm PEG-20K-NH 2 (25±0.5 mg) were placed in a 10 ml syringe. To this powder was added 50 mg corticosteroid TMC.

With `C[C@]12C=CC(=O)C=C1CC[C@H]1[C@@H]3C[C@@H](O)[C@](O)(C(=O)CO)[C@@]3(C)C[C@H](O)[C@@]12F` [TMC], the “amount eluted each day” value is “about 54 micro grams”.
